# Measurements reported in patent US5434132A, “Neuropeptide antagonists” (Imperial Cancer Research Technology, Ltd., priority 1988, dated 1995).
# Where two headings read alike, the source gives them in different places. Non-standard residues stand in square brackets, D forms with d. Residues, ends and D or L forms follow the SMILES beside them.
# How the values were obtained:
# [1] = target: T1, bombesin/GRP receptor (Mus musculus, UniProt P21729); experiment: 125I-GRP binding to membrane preparations of Swiss 3T3 cells; parameters: species or system murine
# T1 construct: Membrane protein (150 μg) prepared from Swiss 3T3 cells as described above; endogenous in cells; host or cells: Swiss 3T3 cells; membrane-enriched fraction prepared with 5 mM Mg2+
# Experimental: Membrane preparation: Cultures in roller bottles were washed twice with 150 ml phosphate buffered saline (PBS) (0.14M NaCl, 5 mM KCl, 0.01M Na2 HPO4, 1.8 mM KH2 PO4; pH 7.2) at room temperature. The cells were then harvested at 4° C. by scraping into ice cold PBS containing 5 mM MgCl2, 1 mM [ethylenebis(oxyethylenenitrilo)]tetraacetic acid (EGTA), 1 mg/ml bacitracin, 10 ug/ml aprotonin, 1 mg/ml soybean trypsin inhibitor and 50 μM phenylmethylsulphonyl fluoride. All subsequent steps were carried out at 4° C. The cells were pelleted by centrifugation at 750 x g for 10 minutes and resuspended 5×10^6 /ml in solution A containing 50 mM 4-(2-Hydroxyethyl)-1-piperazineethanesulfonic acid (Hepes), 5 mM MgCl2, 1 mM EGTA, 1 mg/ml bacitracin, 10 μg/ml aprotonin, 1 mg/ml soybean trypsin inhibitor and 50 μM phenylmethylsulfonyl fluoride, adjusted to pH 7.4 with NaOH at 4° C. Cells were then disrupted using a Dounce homogeniser (A pestle) 75 strokes. The homogenate was centrifuged at 500 x g for 10 minutes to remove nuclear material and intact cells and the supernatant was centrifuged again at 30000 x g for 30 minutes. The resulting pellet, representing a membrane-enriched preparation was resuspended at a protein concentration of 5 to 10 mg/ml in solution A and stored in liquid nitrogen. For experiments, membranes were thawed and diluted to a concentration of 1 mg/ml with solution A.
# Receptor binding assay: Binding assays were carried out in a total volume of 100 ul in binding medium containing 50 mM Hepes, 5 mM MgCl2, 1 mg/ml bacitracin and 1% bovine serum albumin (BSA), adjusted to pH 7.4 with NaOH, unless otherwise indicated. […] Non-specific binding was subtracted from the total binding to obtain specific binding. The membranes were incubated for either 10 minutes at 37° C. or 30 minutes: at 15° C. as indicated.
# The binding reactions were terminated at the specified times by rapid filtration on GF/B glass fibre filters (Whatmann, 1.0 μm pore size). Each filter was washed five times with 5 ml of PBS containing 1% BSA at 4° C. (15 s total time) using a Millipore filtration apparatus. Before the addition of membranes the filters were soaked for 24 hours in 5% polyethylenimine at 4° C. and washed with 5 ml of PBS containing 1% BSA immediately prior to use. […] Radioactivity was determined with a Beckmann γ-counter.
# When 1n[(Beq - Bt)/(BoLo - Beq Bt)]is plotted as a function of time k1 can be determined from the slope by the following relation k1 =slope x [Beg/(Beg^2 - BoLo)](36) where Bo and Lo are the initial concentrations of receptor and ligand respectively. Bt is the concentration of receptor-ligand complex at time t and Beg is its concentration at equilibrium. Equation (1) takes into account the decrease in free ligand concentration that occurs during the binding reaction.
# The first order rate constant of dissociation was determined from the slope of the line obtained by plotting ln(Bt/Beg) as a function of time.
# The reactions were terminated and specific binding determined as described in "Experimental Procedures".
# [2] = target: T2, Mr 75,000-85,000 protein (Mus musculus, UniProt P21729); experiment: Chemical cross-linking (EGS) of 125I-GRP to the Mr 75,000-85,000 protein in Swiss 3T3 membranes; format: binding, murine; conditions: for 125I-GRP affinity labelling of the Mr 75,000-85,000 protein: 0.5 nM 125I-GRP, 37° C., 10 minutes, None 100
# T2 construct: Membrane protein (150 μg) prepared from Swiss 3T3 cells as described above; endogenous in cells; host or cells: Swiss 3T3 cells; membrane-enriched fraction prepared with 5 mM Mg2+
# Experimental: BSA was omitted from all solutions used in the cross-linking studies. At the end of the incubation the membranes were centrifuged at 1000 rpm for 1 minute in a MSE microfuge at room n temperature. The pellets were then resuspended in cross-linking medium containing 4 mM of the cross-linking reagent (EGS) and incubated at 37° C. or 15° C. for 5 minutes or 15 minutes respectively. The reaction was terminated by centrifugation for 1 minute followed by one wash with cross-linking medium and centrifugation. Samples were solubilised in 0.20 ml of 2× sample buffer, (0.2 M Tris-HCl pH 6.8, 10% (w/v) glycerol, 6% sodium dodecyl sulphate (SDS) (w/v), 4% β-mercaptoethanol (v/v), and 2 mM EDTA), immediately heated to 100° C. for 10 minutes and analysed by one dimensional electrophoresis.
# SDS-Polyacrylaaide Gel glectrophoresis: Slab gel electrophoresis was performed using 8% acrylamide in the separating gel and 4% in the stacking gel and 0.1% SDS (37). After electrophoresis gels were stained, desrained and dried down onto paper for autoradiography with Fuji x-ray film. Dried gels were exposed for 2-4 days at -70° C. Autoradiograms were scanned using an LKB ultrascan XL densitometer; and the incorporation of radioactivity into the Mr 75,000-85,000 band was quantified using the Ultroscan XL internal digital integrator.
# Following incubation at 37° C. for 10 minutes the membranes were pelleted by centrifugation and chemical cross-linking carried out as described in "Experimental Procedures" using 4 mM EGS. The samples were analyzed by SDS-PAGE and scanning densitometry of the autoradiograms as described in "Experimental Procedures".
# [3] = addition at 1μM, 0.5 nM 125I-GRP, 37° C., 10 minutes, None 305 ± 9, mean±SEM, n=3
# [4] = 10 min, read-out: 125I-GRP affinity labelling of the Mr 75,000-85,000 protein
# T2 sequence (P21729 whole entry): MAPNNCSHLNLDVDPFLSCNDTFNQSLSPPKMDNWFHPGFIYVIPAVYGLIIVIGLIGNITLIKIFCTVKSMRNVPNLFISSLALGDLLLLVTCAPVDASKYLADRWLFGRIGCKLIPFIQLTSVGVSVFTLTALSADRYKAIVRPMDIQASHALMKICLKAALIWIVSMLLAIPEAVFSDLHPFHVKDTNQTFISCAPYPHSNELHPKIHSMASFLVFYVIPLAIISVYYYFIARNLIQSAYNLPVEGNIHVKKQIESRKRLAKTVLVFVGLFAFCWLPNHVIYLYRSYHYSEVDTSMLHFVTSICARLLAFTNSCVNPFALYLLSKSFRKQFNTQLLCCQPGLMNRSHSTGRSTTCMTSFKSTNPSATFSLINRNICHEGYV
# T1 sequence (P21729 whole entry): as above
compound,measurement,setting,value
"C[C@H](N)C(=O)NCC(=O)N[C@H]1CSSC[C@@H](C(=O)O)NC(=O)[C@H](CO)NC(=O)[C@H]([C@@H](C)O)NC(=O)[C@H](Cc2ccccc2)NC(=O)[C@H]([C@@H](C)O)NC(=O)[C@H](CCCCN)NC(=O)[C@H](Cc2c[nH]c3ccccc23)NC(=O)[C@H](Cc2ccccc2)NC(=O)[C@H](Cc2ccccc2)NC(=O)[C@H](CC(N)=O)NC(=O)[C@H](CCCCN)NC1=O [Somatostatin, somatostatin]",specific binding of 125I-GRP to membranes,[1]; [3],308 ± 8 fmole/mg protein
Insulin: insulin purchased from Sigma,specific binding of 125I-GRP to membranes,"[1]; addition at 1.5 μM, 0.5 nM 125I-GRP, 37° C., 10 minutes, None 305 ± 9",332 ± 6 fmole/mg protein
same,"125I-GRP affinity labelling of the Mr 75,000-85,000 protein",[2]; addition at 1.5 μM,113 ± 3 % of maximum
litorin,inhibition of specific binding of 125I-GRP to membrane preparations,[1]; concentration-dependent manner,inhibited
same,"125I-GRP affinity labelling of the Mr 75,000-85,000 protein",[2]; addition at 100 nM,3 ± 1 % of maximum
CSCC[C@H](NC(=O)[C@H](CC(C)C)NC(=O)[C@H](Cc1cnc[nH]1)NC(=O)CNC(=O)[C@@H](NC(=O)[C@H](C)NC(=O)[C@@H](N)Cc1c[nH]c2ccccc12)C(C)C)C(N)=O [bombesin (8-14)],IC50,[1],4 µM
same,remaining activity at 10 µM,[2]; [4],5 ± 2%
CSCC[C@H](NC(=O)[C@H](CC(C)C)NC(=O)[C@H](Cc1cnc[nH]1)NC(=O)CNC(=O)[C@@H](NC(=O)[C@H](C)NC(=O)[C@H](Cc1c[nH]c2ccccc12)NC(=O)[C@H](CCC(N)=O)NC(=O)[C@H](CC(N)=O)NC(=O)CNC(=O)[C@H](CC(C)C)NC(=O)[C@H](CCCN=C(N)N)NC(=O)[C@H](CCC(N)=O)NC(=O)[C@@H]1CCC(=O)N1)C(C)C)C(N)=O [bombesin],specific binding of 125I-GRP to membranes,[1],7 ± 0.2 fmole/mg protein
same,remaining activity at 0.1 µM,[2]; [4],5 ± 1%
CSCC[C@H](NC(=O)[C@H](Cc1ccccc1)NC(=O)[C@H](Cc1cnc[nH]1)NC(=O)CNC(=O)[C@@H](NC(=O)[C@H](C)NC(=O)[C@H](Cc1c[nH]c2ccccc12)NC(=O)[C@H](CC(C)C)NC(=O)[C@H](CC(N)=O)NC(=O)CN)[C@@H](C)O)C(N)=O [neuromedin B],IC50,[1],0.18 µM
same,remaining activity at 1 µM,[2]; [4],7 ± 2%
substance K,specific binding of 125I-GRP to membranes,[1]; [3],314 ± 5 fmole/mg protein
EGF: epidermal growth factor,specific binding of 125I-GRP to membranes,"[1]; addition at 40 nM, 0.5 nM 125I-GRP, 37° C., 10 minutes, None 305 ± 9",305 ± 6 fmole/mg protein
same,"125I-GRP affinity labelling of the Mr 75,000-85,000 protein",[2]; addition at 40 nM,108 ± 1 % of maximum
vasoactive intestinal peptide [VIP],specific binding of 125I-GRP to membranes,[1]; [3],353 ± 10 fmole/mg protein
"NC(=O)CC[C@@H]1NC(=O)[C@H](Cc2ccccc2)NC(=O)[C@H](Cc2ccc(O)cc2)NC(=O)[C@@H](N)CSSC[C@@H](C(=O)N2CCC[C@H]2C(=O)N[C@@H](CCCN=C(N)N)C(=O)NCC(N)=O)NC(=O)[C@H](CC(N)=O)NC1=O [Vasopressin, vasopressin]",specific binding of 125I-GRP to membranes,[1]; [3],353 ± 10 fmole/mg protein
same,remaining activity at 1 µM,[2]; [4],102 ± 1%
"CC(C)C[C@H](NC(=O)[C@H](CC(C)C)NC(=O)[C@@H](Cc1c[nH]c2ccccc12)NC(=O)[C@H](Cc1ccccc1)NC(=O)[C@@H](Cc1c[nH]c2ccccc12)NC(=O)[C@H](CCC(N)=O)NC(=O)[C@@H](Cc1ccccc1)NC(=O)[C@@H]1CCCN1C(=O)[C@H](CCCCN)NC(=O)[C@@H]1CCCN1C(=O)[C@H](N)CCCN=C(N)N)C(N)=O [antagonist D, D-Arg-Pro-Lys-Pro-D-Phe-Gln-D-Trp-Phe-D-Trp-Leu-Leu-NH2] (H-[dR]PKP[dF]Q[dW]F[dW]LL-NH2)",IC50,"[1]; 0.5 nM 125I-GRP, 15° C., 30 minutes",7 µM
"CCCC(=O)O[C@@H]1[C@@H](C)[C@@]2(O)[C@@H](C=C(CO)C[C@]3(O)C(=O)C(C)=C[C@@H]23)[C@@H]2C(C)(C)[C@]12OC(=O)CCC [PBt2, phorbol 12,13-dibutyrate]",specific binding of 125I-GRP to membranes,"[1]; addition at 400 nM, 0.5 nM 125I-GRP, 37° C., 10 minutes, None 305 ± 9",305 ± 9 fmole/mg protein
same,"125I-GRP affinity labelling of the Mr 75,000-85,000 protein",[2]; addition at 400 nM,111 ± 2 % of maximum
PDGF: Recombinant platelet derived growth factor c-sis,specific binding of 125I-GRP to membranes,"[1]; addition at 15 nM, 0.5 nM 125I-GRP, 37° C., 10 minutes, None 305 ± 9",341 ± 9 fmole/mg protein
same,"125I-GRP affinity labelling of the Mr 75,000-85,000 protein",[2]; addition at 15 nM,104 ± 1 % of maximum
